Laboratory results taken from article PMC7577125 (Antimicrobial Agents and Chemotherapy, 2020).
Like-named read-outs stand apart in the source and are kept apart here.

How the values were obtained:
HBV Cp Y118F = experiment: microbe, parasite or virus in culture; format: cell-based, Hepatitis B virus; conditions: for EC50: Hepatitis B virus, Huh-7, read-out: Mean EC50
HBV Cp Y38C = experiment: microbe, parasite or virus in culture; format: cell-based, Hepatitis B virus; conditions: for EC50: Hepatitis B virus, Huh-7, read-out: Mean EC50
HBV Cp T33N = experiment: microbe, parasite or virus in culture; format: cell-based, Hepatitis B virus; conditions: for EC50: Hepatitis B virus, Huh-7, read-out: Mean EC50
HBV Cp D29G = experiment: microbe, parasite or virus in culture; format: cell-based, Hepatitis B virus; conditions: for EC50: Hepatitis B virus, Huh-7, read-out: Mean EC50
HBV [1] = experiment: Extracellular HBV DNA and pgRNA in HepAD38 cells (qPCR, RT-qPCR); format: cell-based, Hepatitis B virus; conditions: for Extracellular DNA content (% of DMSO control) / Extracellular pgRNA content (% of DMSO control): HepAD38, concn ETV 0.01, ABI-H0731 2.0, GLS4 0.5, NVR 3-778 2.5, AT-130 0.8, VRD-32 0.8 μM
Description: For HBV RNA Northern blot analysis, total cellular RNA or encapsidated pgRNA samples were resolved in a 1.5% agarose gel containing 2.2 M formaldehyde and transferred onto a Hybond-XL membrane (GE Healthcare). For DNA Southern blot analysis, HBV core DNA or cccDNA samples were resolved by electrophoresis in a 1.2% agarose gel and blotted onto a Hybond-XL membrane. Membranes were probed with either an [α-^32P]UTP (3,000 Ci/mmol; PerkinElmer)-labeled plus-strand-specific (for Northern blot hybridization) or minus-strand-specific (for Southern blot hybridization) HBV riboprobe and exposed to a phosphorimager screen. Extracellular HBV DNA and RNA were copurified from the culture medium of induced HepAD38 cells by using a MinElute virus vacuum kit (Qiagen). Viral DNA was quantified using the above-mentioned qPCR method directly, and HBV RNA was detected by RT-qPCR with the same core region primer/probe set after the removal of DNA contamination by DNase I (Thermo Fisher) treatment.

HBV Cp Y38F = experiment: microbe, parasite or virus in culture; format: cell-based, Hepatitis B virus; conditions: for EC50: Hepatitis B virus, Huh-7, read-out: Mean EC50
[2] = system: HBV (genotype D, subtype ayw); experiment: HBV replication assay in HepAD38 cells; format: cell-based, Hepatitis B virus
HBV [3] = experiment: HBV RNA/DNA analyses in induced HepAD38 cells (Northern/Southern blot); format: cell-based, Hepatitis B virus; conditions: HepAD38, 10-fold over VR EC50
HBV Cp P25A = experiment: microbe, parasite or virus in culture; format: cell-based, Hepatitis B virus; conditions: for EC50: Hepatitis B virus, Huh-7, read-out: Mean EC50
HBV Cp I105T = experiment: microbe, parasite or virus in culture; format: cell-based, Hepatitis B virus; conditions: for EC50: Hepatitis B virus, Huh-7, read-out: Mean EC50
HBV Cp T109I = experiment: microbe, parasite or virus in culture; format: cell-based, Hepatitis B virus; conditions: for EC50: Hepatitis B virus, Huh-7, read-out: Mean EC50
HBV Cp I105L = experiment: microbe, parasite or virus in culture; format: cell-based, Hepatitis B virus; conditions: for EC50: Hepatitis B virus, Huh-7, read-out: Mean EC50
HBV Cp T109M = experiment: microbe, parasite or virus in culture; format: cell-based, Hepatitis B virus; conditions: for EC50: Hepatitis B virus, Huh-7, read-out: Mean EC50
HBV Cp Wild type = experiment: microbe, parasite or virus in culture; format: cell-based, Hepatitis B virus; conditions: for EC50: Hepatitis B virus, Huh-7, read-out: Mean EC50
HBV [4] = experiment: HBV infection of primary human hepatocytes (PHHs); format: cell-based; conditions: Hepatitis B virus, Hepatocyte, PHH
HBV [5] = experiment: HBV infection of HepG2-NTCP cells; format: cell-based; conditions: Hepatitis B virus
HBV capsid DNA [6] = experiment: Incoming capsid assay in HepG2-NTCP cells; format: cell-based; conditions: Hepatitis B virus, 1.00 μM, 3 h, read-out: Capsid DNA % of Control
HBV genotype A = experiment: microbe, parasite or virus in culture; format: cell-based; conditions: Hepatitis B virus, read-out: Mean antiviral EC50
HBV genotype C = experiment: microbe, parasite or virus in culture; format: cell-based; conditions: Hepatitis B virus, read-out: Mean antiviral EC50
HBV cccDNA [7] = experiment: cccDNA formation assay in infected PHH cells (Southern blot); format: cell-based; conditions: Hepatitis B virus, 96 h, 0.10 μM, 4 days, read-out: cccDNA % of Control
HBV [8] = experiment: De novo infection models (HepG2-NTCP and PHH), summary; format: cell-based, Hepatitis B virus; conditions: HepG2-NTCP and PHH cells, tested at up to 100 nM
[9] = system: NrtI^R HBV (rtL180M/M204V); experiment: microbe, parasite or virus in culture; format: cell-based, Hepatitis B virus; conditions: Hepatitis B virus
[10] = system: HBV genotypes A, B, C, and D; experiment: microbe, parasite or virus in culture; format: cell-based; conditions: Hepatitis B virus, read-out: VR EC50s
HBV genotype B = experiment: microbe, parasite or virus in culture; format: cell-based; conditions: Hepatitis B virus, read-out: Mean antiviral EC50
HBV [11] = experiment: Dose response of ETV and ABI-H0731 alone and in combination in induced HepAD38 cells; format: cell-based, Hepatitis B virus; conditions: 100× VR EC50 of ETV
Protocol: Viral replication was evaluated by quantifying the levels of total HBV DNA in the cells by qPCR. […] In both cases, the data are plotted as a function of each drug’s concentration relative to its VR EC50.

HBV genotype D = experiment: microbe, parasite or virus in culture; format: cell-based; conditions: Hepatitis B virus, read-out: Mean antiviral EC50
HBV cccDNA [12] = experiment: cccDNA formation assay in infected HepG2-NTCP cells (Southern blot); format: cell-based; conditions: Hepatitis B virus, 96 h, 1.00 μM, 4 days, read-out: cccDNA % of Control
HBV capsid DNA [13] = experiment: Incoming capsid assay in PHH cells; format: cell-based; conditions: Hepatitis B virus, 0.10 μM, 3 h, read-out: Capsid DNA % of Control
[14] = Hepatitis B virus, HePAD38, HepAD38, total intracellular viral DNA, read-out: Mean EC50, viral DNA
[15] = total intracellular viral DNA, read-out: Mean EC50, viral DNA

Row | SMILES | EC50 (HBV Cp Y118F) | EC50 (HBV Cp Y38C) | EC50 (HBV Cp T33N) | EC50 (HBV Cp D29G) | Extracellular DNA content (% of DMSO control) (HBV [1]) | Extracellular pgRNA content (% of DMSO control) (HBV [1]) | EC50 (HBV Cp Y38F) | EC50 [2, 14] | EC50 (HBV Cp P25A) | EC50 (HBV Cp I105T) | EC50 (HBV Cp T109I) | EC50 (HBV Cp I105L) | EC50 (HBV Cp T109M) | EC50 (HBV Cp Wild type) | EC50 (HBV [4]; read-out: Mean EC50, HBeAg) | EC50 (HBV [4]; read-out: Mean EC50, HBsAg) | EC50 (HBV [4]; read-out: Mean EC50, pgRNA) | EC50 (HBV [4]; [15]) | EC50 (HBV [5]; read-out: Mean EC50, HBeAg) | EC50 (HBV [5]; read-out: Mean EC50, HBsAg) | other results
1 | O=C(Nc1cc(F)c(F)c(F)c1)c1ccc(F)c(S(=O)(=O)N2CCC(O)CC2)c1 [NVR 3-778] | 887 ± 478 nM | 150 ± 48 nM | > 10000 nM | 210 ± 52 nM | 1.0 % of DMSO control | 2.0 % of DMSO control | 208 ± 49 nM | 238 ± 33 nM | 719 ± 58 nM | 726 ± 98 nM | 77.4 ± 0.4 nM | 127 ± 73 nM | 161 ± 97 nM | 178 ± 42 nM | 4010 nM | 5040 nM | 4200 nM | 1680 nM | 8360 nM | 9260 nM | Fold shift (HBV Cp Y118F; Y118F vs wild type): 5 fold; Fold shift (HBV Cp Y38C; Y38C vs wild type): 0.8 fold; Fold shift (HBV Cp T33N; T33N vs wild type): >56 fold; Fold shift (HBV Cp D29G; D29G vs wild type): 1.2 fold; Fold shift (HBV Cp Y38F; Y38F vs wild type): 1.2 fold; Levels of encapsidated pgRNA by Northern blotting (HBV [3]): virtually undetectable; Fold shift (HBV Cp P25A; P25A vs wild type): 4 fold; Fold shift (HBV Cp I105T; I105T vs wild type): 4.1 fold; Fold shift (HBV Cp T109I; T109I vs wild type): 0.4 fold; Fold shift (HBV Cp I105L; I105L vs wild type): 0.7 fold; Fold shift (HBV Cp T109M; T109M vs wild type): 0.9 fold; Fold shift (HBV Cp Wild type; Wild type): 1 fold; EC50 (HBV [5]; read-out: Mean EC50, pgRNA): 7600 nM; EC50 (HBV [5]; [15]): 590 ± 71 nM
2 | C=C1[C@H](CO)[C@@H](O)C[C@@H]1n1cnc2c(=O)[nH]c(N)nc21 [ETV, entecavir] | 1.5 ± 0.9 nM | 1.1 ± 0.5 nM | 3.5 ± 1.6 nM | 0.6 ± 0.1 nM | 19.5 % of DMSO control | 170 % of DMSO control | 4.6 ± 0.6 nM | 1.2 ± 0.3 nM | 2.9 ± 0.3 nM | 0.5 ± 0.3 nM | 1.9 ± 0.6 nM | 0.4 ± 0.2 nM | 1.5 ± 0.3 nM | 1.9 ± 0.9 nM | > 100 nM | > 100 nM | > 100 nM | < 0.1 nM | > 100 nM | > 100 nM | activity at 1 µM (HBV capsid DNA [6]): 90%; EC50 (HBV genotype A): 1.9 ± 0.5 nM; EC50 (HBV genotype C): 1.2 ± 0.1 nM; activity at 0.1 µM (HBV cccDNA [7]): 88%; inhibition of viral antigen production (HBV [8]): weak and incomplete inhibition; secreted HBV DNA levels reduced by (HBV [1]; HepAD38, ETV 0.01 μM): 80%; EC50 ([9]; 96 h, read-out: Mean EC50): 7.1 ± 1.2 nM; EC50 ([9]; 168 h, read-out: EC50 by Southern blot of intracellular viral core DNA): ~10 nM; EC50 [10]: 1.2 to 5 nM; EC50 ([2]; HepAD38, concomitantly determined with HepG2-NrtI^R, read-out: Mean EC50): 0.58 ± 0.15 nM; EC50 ([2]; Hepatitis B virus, HePAD38, HepAD38, concomitantly determined with HepG2-NrtI^R, read-out: Mean EC50): 0.6 nM; EC50 ([2]; Hepatitis B virus, HePAD38, comparison value of Figure S4 legend, read-out: EC50 against a wild-type strain): 1 nM; EC50 (HBV genotype B): 2.3 ± 0.5 nM; reduction of HBV DNA levels (HBV [11]): ~1 log; HBV DNA levels (HBV [11]; control 2.2 × 10^6): 1.3 × 10^5 copies/μl; EC50 (HBV genotype D): 5 ± 1.9 nM; activity at 1 µM (HBV cccDNA [12]): 85%; activity at 0.1 µM (HBV capsid DNA [13]): 86%; EC50 (HBV [5]; read-out: Mean EC50, pgRNA): > 100 nM; EC50 (HBV [5]; [15]): 0.8 nM
3 | COc1ccccc1/C(Br)=C(/NC(=O)c1ccc([N+](=O)[O-])cc1)C(=O)N1CCCCC1 [AT-130] |  |  |  |  | 5.3 % of DMSO control | 8.6 % of DMSO control |  |  |  |  |  |  |  |  |  |  |  |  |  |  | 
